How the values were obtained:
[1] = test system: multi-potent progenitors (MPPs); assay: MLTA, MPPs: concentration-response and QSP model fit; type: cell-based, human; settings: Homo sapiens, 144 h
Procedure, shortened: (§1)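 Values derive from fitting a QSP Emax model (EmaxT 0–2, above 1 denoting added cell killing) to vehicle-normalized lineage counts. Counts were obtained by 17-parameter flow after 6-day culture of human bone marrow CD34+ cells with test article.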

[2] = test system: granulocyte-macrophage progenitor (GMPs); assay: MLTA, GMPs: concentration-response and QSP model fit; type: cell-based, human; settings: Homo sapiens, 144 h
Procedure, shortened: as §1

[3] = test system: granulocyte progenitor (Gran-lin prog); assay: MLTA, GranP: concentration-response and QSP model fit; type: cell-based, human; settings: Homo sapiens, 144 h
Procedure, shortened: (§2)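 Freeze-thawed primary human bone marrow CD34+ cells were cultured 6 days in SFEM II with a cytokine cocktail, drug added on day 0. Subsets were counted by 17-parameter flow cytometry with TruCount beads and normalized to vehicle wells. An Emax QSP model (Emax 0–2, L1 regularization) was fitted to these counts.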

B cells (B-lin) = assay: MLTA, B-lin: concentration-response and QSP model fit; type: cell-based, human; settings: Homo sapiens, B-cell, 144 h
Procedure, shortened: as §1

[4] = test system: lymphocyte progenitors (LymP); assay: MLTA, LymP: concentration-response and QSP model fit; type: cell-based, human; settings: Homo sapiens, Lymphocyte, 144 h
Procedure, shortened: as §1

granulocytes (Gran-lin) = assay: MLTA, Gran: concentration-response and QSP model fit; type: cell-based, human; settings: Homo sapiens, 144 h
Procedure, shortened: as §2

[5] = test system: total viable cells (totalViableCells); assay: MLTA, total live cells concentration-response; type: cell-based; settings: Homo sapiens, 144 h, 6 days, normalized to vehicle control, read-out: total_live normalized cell count
Experimental: A custom optimized cytokine cocktail was developed using commercially available cytokines (Peprotech, New Jersey) to facilitate simultaneous multi-lineage differentiation and self-renewal of freeze-thawed primary human bone marrow-derived CD34+ cells in SFEM II media (cells and media from StemCell Technologies, Vancouver). Cultures were carried out in ultra-low attachment 96-well plates (Corning, New York) with test article added on day 0 and cultured at 37°C, 85% relative humidity, and 5% CO2 for six days before interrogating drug impact via 17-parameter flow cytometry.
The flow cytometry panel used to define hematopoietic subsets was composed of CD34-PECy7, CD90-PECY5, CD38-AF488, CD371-PE, CD45Ra-BV421, CD14-BV605, CD42b-AF647, CD10-PEDazzle594, CD235a-PerCPCy5.5 (BioLegend, California), CD15-BUV395, CD41a-APCH7, CD71-BV786 (BD Biosciences, California), and DAPI for dead cell exclusion (ThermoFisher, California). In short, Day 6 cells were harvested, FcR-blocked (FcR binding inhibitor, ThermoFisher), surface-stained, then analyzed in a buffer containing TruCount Control Beads using a BD LSR Fortessa SORP fitted with a high-throughput sampler (BD Biosciences, California). Data was analyzed in Diva 6.0.2 and exported to CSV where after all cell data was transformed to cell per mL then normalized on a per-donor basis to untreated control wells to determine drug impact.
Donor material was collected and cultured as described above. The number of replicate donor samples per drug ranged from 2–7 and varied per drug (S1 Table). Drug treatment was added at time 0 and cells were maintained in culture for 6 days. Concentrations tested for each drug compound are contained in S1 Table. Concentrations were selected to span a range that is clinically useful. Following treatment, cell populations were measured using flow cytometry. We extracted cell counts from flow cytometry data, normalized to bead counts, and corrected for well volume.
Each well was normalized to the average of six vehicle control wells. For drugs that were tested across multiple runs of the assay, vehicle-normalized donor data were pooled, and we used the average of these pooled data for further modeling. Normalized data used as model inputs are included in S1 Table.

MK cells (MK-lin) = assay: MLTA, MK: concentration-response and QSP model fit; type: cell-based, human; settings: Homo sapiens, 144 h
Procedure, shortened: as §1

[6] = QSP model fit of 6-day MLTA data

CS(=O)(=O)N1CCN(Cc2cc3nc(-c4cccc5[nH]ncc45)nc(N4CCOCC4)c3s2)CC1 [pictilisib]
activity at 0.0002 µM ([1]; dose 0.2 nM, 6 days, normalized to vehicle control, read-out: MPPs normalized cell count): 89.3% | activity at 0.001 µM ([1]; dose 1 nM, 6 days, normalized to vehicle control, read-out: MPPs normalized cell count): 82.2% | activity at 0.005 µM ([1]; dose 5 nM, 6 days, normalized to vehicle control, read-out: MPPs normalized cell count): 71.7% | activity at 0.025 µM ([1]; dose 25 nM, 6 days, normalized to vehicle control, read-out: MPPs normalized cell count): 67.2% | activity at 0.1 µM ([1]; dose 100 nM, 6 days, normalized to vehicle control, read-out: MPPs normalized cell count): 49.1% | activity at 0.5 µM ([1]; dose 500 nM, 6 days, normalized to vehicle control, read-out: MPPs normalized cell count): 38.2% | activity at 2.5 µM ([1]; dose 2500 nM, 6 days, normalized to vehicle control, read-out: MPPs normalized cell count): 28% | Emax ([1]; parameter from QSP model fitting, read-out: Emax_drug_MPP): 0.03% | EC50 [2, 6]: 0.00141 µM | activity at 0.0002 µM ([2]; dose 0.2 nM, 6 days, normalized to vehicle control, read-out: GMPs normalized cell count): 95.6% | activity at 0.001 µM ([2]; dose 1 nM, 6 days, normalized to vehicle control, read-out: GMPs normalized cell count): 97.9% | activity at 0.005 µM ([2]; dose 5 nM, 6 days, normalized to vehicle control, read-out: GMPs normalized cell count): 92.7% | activity at 0.025 µM ([2]; dose 25 nM, 6 days, normalized to vehicle control, read-out: GMPs normalized cell count): 75.4% | activity at 0.1 µM ([2]; dose 100 nM, 6 days, normalized to vehicle control, read-out: GMPs normalized cell count): 62.5% | activity at 0.5 µM ([2]; dose 500 nM, 6 days, normalized to vehicle control, read-out: GMPs normalized cell count): 39.5% | activity at 2.5 µM ([2]; dose 2500 nM, 6 days, normalized to vehicle control, read-out: GMPs normalized cell count): 22.5% | EC50 ([3]; QSP model fit of 6-day MLTA data, read-out: EC50GranP): 0.093 µM | activity at 0.0002 µM ([3]; dose 0.2 nM, 6 days, normalized to vehicle control, read-out: GranPs normalized cell count): 95.5% | activity at 0.001 µM ([3]; dose 1 nM, 6 days, normalized to vehicle control, read-out: GranPs normalized cell count): 100% | activity at 0.005 µM ([3]; dose 5 nM, 6 days, normalized to vehicle control, read-out: GranPs normalized cell count): 101% | activity at 0.025 µM ([3]; dose 25 nM, 6 days, normalized to vehicle control, read-out: GranPs normalized cell count): 84% | activity at 0.1 µM ([3]; dose 100 nM, 6 days, normalized to vehicle control, read-out: GranPs normalized cell count): 70.2% | activity at 0.5 µM ([3]; dose 500 nM, 6 days, normalized to vehicle control, read-out: GranPs normalized cell count): 60.8% | activity at 2.5 µM ([3]; dose 2500 nM, 6 days, normalized to vehicle control, read-out: GranPs normalized cell count): 28.4% | Emax ([3]; parameter from QSP model fitting, read-out: Emax_drug_GranP): 60.5% | EC50 (B cells (B-lin); [6]): 0.0913 µM | activity at 0.0002 µM (B cells (B-lin); dose 0.2 nM, 6 days, normalized to vehicle control, read-out: B-lin normalized cell count): 93.8% | activity at 0.001 µM (B cells (B-lin); dose 1 nM, 6 days, normalized to vehicle control, read-out: B-lin normalized cell count): 107% | activity at 0.005 µM (B cells (B-lin); dose 5 nM, 6 days, normalized to vehicle control, read-out: B-lin normalized cell count): 81.5% | activity at 0.025 µM (B cells (B-lin); dose 25 nM, 6 days, normalized to vehicle control, read-out: B-lin normalized cell count): 65.5% | activity at 0.1 µM (B cells (B-lin); dose 100 nM, 6 days, normalized to vehicle control, read-out: B-lin normalized cell count): 37.5% | activity at 0.5 µM (B cells (B-lin); dose 500 nM, 6 days, normalized to vehicle control, read-out: B-lin normalized cell count): 16.2% | activity at 2.5 µM (B cells (B-lin); dose 2500 nM, 6 days, normalized to vehicle control, read-out: B-lin normalized cell count): 6.19% | Emax (B cells (B-lin); parameter from QSP model fitting, read-out: Emax_drug_B): 51.4% | activity at 0.0002 µM ([4]; dose 0.2 nM, 6 days, normalized to vehicle control, read-out: LymP normalized cell count): 93.3% | activity at 0.001 µM ([4]; dose 1 nM, 6 days, normalized to vehicle control, read-out: LymP normalized cell count): 105% | activity at 0.005 µM ([4]; dose 5 nM, 6 days, normalized to vehicle control, read-out: LymP normalized cell count): 86.9% | activity at 0.025 µM ([4]; dose 25 nM, 6 days, normalized to vehicle control, read-out: LymP normalized cell count): 77.7% | activity at 0.1 µM ([4]; dose 100 nM, 6 days, normalized to vehicle control, read-out: LymP normalized cell count): 49.6% | activity at 0.5 µM ([4]; dose 500 nM, 6 days, normalized to vehicle control, read-out: LymP normalized cell count): 46.4% | activity at 2.5 µM ([4]; dose 2500 nM, 6 days, normalized to vehicle control, read-out: LymP normalized cell count): 19.2% | Emax ([4]; parameter from QSP model fitting, read-out: Emax_drug_LymP): 0.032% | EC50 (granulocytes (Gran-lin); [6]): 0.000167 µM | activity at 0.0002 µM (granulocytes (Gran-lin); dose 0.2 nM, 6 days, normalized to vehicle control, read-out: Gran normalized cell count): 99.2% | activity at 0.001 µM (granulocytes (Gran-lin); dose 1 nM, 6 days, normalized to vehicle control, read-out: Gran normalized cell count): 100% | activity at 0.005 µM (granulocytes (Gran-lin); dose 5 nM, 6 days, normalized to vehicle control, read-out: Gran normalized cell count): 90.3% | activity at 0.025 µM (granulocytes (Gran-lin); dose 25 nM, 6 days, normalized to vehicle control, read-out: Gran normalized cell count): 78.6% | activity at 0.1 µM (granulocytes (Gran-lin); dose 100 nM, 6 days, normalized to vehicle control, read-out: Gran normalized cell count): 51.4% | activity at 0.5 µM (granulocytes (Gran-lin); dose 500 nM, 6 days, normalized to vehicle control, read-out: Gran normalized cell count): 27.9% | activity at 2.5 µM (granulocytes (Gran-lin); dose 2500 nM, 6 days, normalized to vehicle control, read-out: Gran normalized cell count): 9.84% | Emax (granulocytes (Gran-lin); parameter from QSP model fitting, read-out: Emax_drug_Gran): 23.2% | viability at 0.0002 µM ([5]; dose 0.2 nM): 97.8% | viability at 0.001 µM ([5]; dose 1 nM): 96.4% | viability at 0.005 µM ([5]; dose 5 nM): 91.2% | viability at 0.025 µM ([5]; dose 25 nM): 84% | viability at 0.1 µM ([5]; dose 100 nM): 60.1% | viability at 0.5 µM ([5]; dose 500 nM): 33.9% | viability at 2.5 µM ([5]; dose 2500 nM): 12.9% | EC50 (MK cells (MK-lin); [6]): 1.07 µM | activity at 0.0002 µM (MK cells (MK-lin); dose 0.2 nM, 6 days, normalized to vehicle control, read-out: MK normalized cell count): 100% | activity at 0.001 µM (MK cells (MK-lin); dose 1 nM, 6 days, normalized to vehicle control, read-out: MK normalized cell count): 107% | activity at 0.005 µM (MK cells (MK-lin); dose 5 nM, 6 days, normalized to vehicle control, read-out: MK normalized cell count): 113% | activity at 0.025 µM (MK cells (MK-lin); dose 25 nM, 6 days, normalized to vehicle control, read-out: MK normalized cell count): 85.6% | activity at 0.1 µM (MK cells (MK-lin); dose 100 nM, 6 days, normalized to vehicle control, read-out: MK normalized cell count): 78.4% | activity at 0.5 µM (MK cells (MK-lin); dose 500 nM, 6 days, normalized to vehicle control, read-out: MK normalized cell count): 49.7% | activity at 2.5 µM (MK cells (MK-lin); dose 2500 nM, 6 days, normalized to vehicle control, read-out: MK normalized cell count): 16.8% | Emax (MK cells (MK-lin); parameter from QSP model fitting, read-out: Emax_drug_MK): 12.3%

Source: paper PMC7402526, “An in vitro quantitative systems pharmacology approach for deconvolving mechanisms of drug-induced, multilineage cytopenias” (PLoS Computational Biology, 2020)
